According to ChEMBL document CHEMBL2074031, “Inhibitory effects of CYP3A4 substrates and their metabolites on P-glycoprotein-mediated transport” (Eur J Pharm Sci, 2001):

Columns and labels:
Format in all cases: functional, cell-based
[1] = biological target: T1, ATP-dependent translocase ABCB1 (Homo sapiens, UniProt P08183); experiment: TP_TRANSPORTER: inhibition of Digoxin transepithelial transport (basal to apical)(Digoxin: 0.025 uM, 6-hydroxyazelastine: 50 uM) in MDR1-expressing LLC-PK1 cells; details: pig, llc-pk1, 50 µM
T1 sequence (P08183 whole entry): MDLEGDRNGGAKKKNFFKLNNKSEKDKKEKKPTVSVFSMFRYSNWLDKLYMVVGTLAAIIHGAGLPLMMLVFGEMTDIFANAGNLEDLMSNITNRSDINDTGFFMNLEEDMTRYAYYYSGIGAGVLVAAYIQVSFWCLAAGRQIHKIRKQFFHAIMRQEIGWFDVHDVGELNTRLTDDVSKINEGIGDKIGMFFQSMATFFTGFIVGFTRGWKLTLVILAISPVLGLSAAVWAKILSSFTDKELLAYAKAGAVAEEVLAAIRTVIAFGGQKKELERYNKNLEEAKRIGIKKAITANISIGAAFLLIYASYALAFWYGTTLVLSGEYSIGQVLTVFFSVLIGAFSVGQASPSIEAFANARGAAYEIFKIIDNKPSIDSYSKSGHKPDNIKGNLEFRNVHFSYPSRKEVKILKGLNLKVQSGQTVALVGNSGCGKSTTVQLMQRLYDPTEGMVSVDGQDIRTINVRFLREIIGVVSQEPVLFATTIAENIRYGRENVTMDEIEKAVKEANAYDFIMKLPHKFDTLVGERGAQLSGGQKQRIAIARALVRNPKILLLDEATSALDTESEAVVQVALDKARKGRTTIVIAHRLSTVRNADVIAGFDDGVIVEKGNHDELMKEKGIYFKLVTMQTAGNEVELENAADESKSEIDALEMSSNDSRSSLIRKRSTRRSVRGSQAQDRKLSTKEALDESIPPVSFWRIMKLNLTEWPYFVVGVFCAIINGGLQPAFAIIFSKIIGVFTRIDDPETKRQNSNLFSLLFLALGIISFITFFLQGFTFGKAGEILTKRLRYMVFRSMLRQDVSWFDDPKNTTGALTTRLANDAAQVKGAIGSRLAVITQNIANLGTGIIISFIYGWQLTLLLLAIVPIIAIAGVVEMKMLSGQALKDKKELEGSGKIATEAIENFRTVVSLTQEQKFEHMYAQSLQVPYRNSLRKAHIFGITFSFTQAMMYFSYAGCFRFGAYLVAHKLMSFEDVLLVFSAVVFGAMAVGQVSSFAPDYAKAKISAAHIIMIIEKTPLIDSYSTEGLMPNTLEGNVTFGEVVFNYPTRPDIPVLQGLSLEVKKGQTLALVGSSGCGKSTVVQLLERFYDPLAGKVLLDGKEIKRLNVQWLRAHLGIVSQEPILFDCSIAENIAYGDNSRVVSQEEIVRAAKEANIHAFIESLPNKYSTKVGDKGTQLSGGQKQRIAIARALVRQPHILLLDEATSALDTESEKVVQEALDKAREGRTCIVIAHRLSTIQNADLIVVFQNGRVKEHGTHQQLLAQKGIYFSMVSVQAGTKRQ

[2] = biological target: T1, ATP-dependent translocase ABCB1; experiment: TP_TRANSPORTER: inhibition of Daunorubicin transepithelial transport (basal to apical)(Daunorubicin: 0.035 uM, 6-hydroxyazelastine: 50 uM) in MDR1-expressing LLC-PK1 cells; details: pig, llc-pk1, 50 µM
[3] = biological target: T1, ATP-dependent translocase ABCB1; experiment: TP_TRANSPORTER: inhibition of Digoxin transepithelial transport (basal to apical)(Digoxin: 0.025 uM, Testosterone: 50 uM) in MDR1-expressing LLC-PK1 cells; details: pig, llc-pk1, 50 µM
[4] = biological target: T1, ATP-dependent translocase ABCB1; experiment: TP_TRANSPORTER: inhibition of Daunorubicin transepithelial transport (basal to apical)(Daunorubicin: 0.035 uM, Testosterone: 50 uM) in MDR1-expressing LLC-PK1 cells; details: pig, llc-pk1, 50 µM
[5] = biological target: T1, ATP-dependent translocase ABCB1; experiment: TP_TRANSPORTER: inhibition of Daunorubicin transepithelial transport (basal to apical)(Daunorubicin: 0.035 uM, 1'-hydroxymidazolam: 50 uM) in MDR1-expressing LLC-PK1 cells; details: pig, llc-pk1, 50 µM
[6] = biological target: T1, ATP-dependent translocase ABCB1; experiment: TP_TRANSPORTER: inhibition of Digoxin transepithelial transport (basal to apical)(Digoxin: 0.025 uM, 1'-hydroxymidazolam: 50 uM) in MDR1-expressing LLC-PK1 cells; details: pig, llc-pk1, 50 µM
[7] = biological target: T1, ATP-dependent translocase ABCB1; experiment: TP_TRANSPORTER: inhibition of Digoxin transepithelial transport (basal to apical)(Digoxin: 0.025 uM, Midazolam: 50 uM) in MDR1-expressing LLC-PK1 cells; details: pig, llc-pk1, 50 µM
[8] = biological target: T1, ATP-dependent translocase ABCB1; experiment: TP_TRANSPORTER: inhibition of Daunorubicin transepithelial transport (basal to apical)(Daunorubicin: 0.035 uM, Midazolam: 50 uM) in MDR1-expressing LLC-PK1 cells; details: pig, llc-pk1, 50 µM
[9] = biological target: T1, ATP-dependent translocase ABCB1; experiment: TP_TRANSPORTER: inhibition of Daunorubicin transepithelial transport (basal to apical) (Daunorubicin: 0.035 uM) in MDR1-expressing LLC-PK1 cells
[10] = biological target: T1, ATP-dependent translocase ABCB1; experiment: TP_TRANSPORTER: inhibition of Digoxin transepithelial transport (basal to apical) (Digoxin: 0.025 uM) in MDR1-expressing LLC-PK1 cells
[11] = biological target: T1, ATP-dependent translocase ABCB1; experiment: TP_TRANSPORTER: inhibition of Digoxin transepithelial transport (basal to apical) (Digoxin: 0.025 uM, Oxidized nifedipine: 50 uM) in MDR1-expressing LLC-PK1 cells; details: pig, llc-pk1, 50 µM
[12] = biological target: T1, ATP-dependent translocase ABCB1; experiment: TP_TRANSPORTER: inhibition of Daunorubicin transepithelial transport (basal to apical) (Daunorubicin: 0.035 uM, Oxidized nifedipine: 50 uM) in MDR1-expressing LLC-PK1 cells; details: pig, llc-pk1, 50 µM
[13] = biological target: T1, ATP-dependent translocase ABCB1; experiment: TP_TRANSPORTER: inhibition of Daunorubicin transepithelial transport (basal to apical) (Daunorubicin: 0.035 uM, Nifedipine: 50 uM) in MDR1-expressing LLC-PK1 cells; details: pig, llc-pk1, 50 µM
[14] = biological target: T1, ATP-dependent translocase ABCB1; experiment: TP_TRANSPORTER: inhibition of Daunorubicin transepithelial transport (basal to apical)(Daunorubicin: 0.035 uM, 4-hydroxymidazolam: 50 uM) in MDR1-expressing LLC-PK1 cells; details: pig, llc-pk1, 50 µM
[15] = biological target: T1, ATP-dependent translocase ABCB1; experiment: TP_TRANSPORTER: inhibition of Digoxin transepithelial transport (basal to apical)(Digoxin: 0.025 uM, 6beta-hydroxytestosterone: 50 uM) in MDR1-expressing LLC-PK1 cells; details: pig, llc-pk1, 50 µM
[16] = biological target: T1, ATP-dependent translocase ABCB1; experiment: TP_TRANSPORTER: inhibition of Daunorubicin transepithelial transport (basal to apical)(Daunorubicin: 0.035 uM, 6beta-hydroxytestosterone: 50 uM) in MDR1-expressing LLC-PK1 cells; details: pig, llc-pk1, 50 µM

CN1CCCC(N2NC(Cc3ccc(Cl)cc3)c3cc(O)ccc3C2=O)CC1 (stereo not given) [6-hydroxyazelastine]
Activity [1]: is not an inhibitor [-] | Activity [2]: is not an inhibitor [-]

C[C@]12CC[C@H]3[C@@H](CCC4=CC(=O)CC[C@@]43C)[C@@H]1CC[C@@H]2O [TESTOSTERONE]
Activity [3]: is not an inhibitor [-] | Activity [4]: is not an inhibitor [-]

OCc1ncc2n1-c1ccc(Cl)cc1C(c1ccccc1F)=NC2 [ALPHA-HYDROXY-MIDAZOLAM]
Activity [5]: is not an inhibitor [-] | Activity [6]: is not an inhibitor [-]

Cc1ncc2n1-c1ccc(Cl)cc1C(c1ccccc1F)=NC2 [MIDAZOLAM]
Activity [7]: is not an inhibitor [-] | Activity [8]: is not an inhibitor [-]

O=c1c2ccccc2c(Cc2ccc(Cl)cc2)nn1C1CCCNCC1 (stereo not given) [DESMETHYLAZELASTINE]
IC50 [9]: 11.8 µM | IC50 [10]: 41.8 µM

COC(=O)c1c(C)nc(C)c(C(=O)OC)c1-c1ccccc1[N+](=O)[O-]
Activity [11]: is not an inhibitor [-] | Activity [12]: is not an inhibitor [-]

CCCCc1oc2ccccc2c1C(=O)c1cc(I)c(OCCNCC)c(I)c1 [DESETHYLAMIODARONE]
IC50 [9]: 15.4 µM | IC50 [10]: 25.2 µM

COC(=O)C1=C(C)NC(C)=C(C(=O)OC)C1c1ccccc1[N+](=O)[O-] [NIFEDIPINE]
Activity [13]: is not an inhibitor [-]

Cc1ncc2n1-c1ccc(Cl)cc1C(c1ccccc1F)=NC2O (stereo not given) [4-Hydroxymidazolam]
Activity [14]: is not an inhibitor [-]

C[C@]12CC[C@H]3[C@@H](C[C@@H](O)C4=CC(=O)CC[C@@]43C)[C@@H]1CC[C@@H]2O [6beta-hydroxytestosterone]
Activity [15]: is not an inhibitor [-] | Activity [16]: is not an inhibitor [-]

CN1CCCC(n2nc(Cc3ccc(Cl)cc3)c3ccccc3c2=O)CC1 (stereo not given) [AZELASTINE]
IC50 [9]: 16 µM | IC50 [10]: 30 µM
